Assay results from paper PMC12289521, “Ligand binding to a Ni–Fe cluster orchestrates conformational changes of the CO-dehydrogenase–acetyl-CoA synthase complex” (Nature Catalysis, 2025).
pKd: −log10 of the molar value.

What was measured:
[1] = biological target: T1, acetyl-CoA synthase (ACS) (Carboxydothermus hydrogenoformans, UniProt Q3ACS4); test: ITC of CODH–ACS complex with […] Ti(III)–EDTA, […] °C; assay type: binding
T1 construct: gene acsB; CODH–ACS complex, heterologously expressed in E. coli; with CO-dehydrogenase (CODH)
T1 sequence (Q3ACS4 1-732): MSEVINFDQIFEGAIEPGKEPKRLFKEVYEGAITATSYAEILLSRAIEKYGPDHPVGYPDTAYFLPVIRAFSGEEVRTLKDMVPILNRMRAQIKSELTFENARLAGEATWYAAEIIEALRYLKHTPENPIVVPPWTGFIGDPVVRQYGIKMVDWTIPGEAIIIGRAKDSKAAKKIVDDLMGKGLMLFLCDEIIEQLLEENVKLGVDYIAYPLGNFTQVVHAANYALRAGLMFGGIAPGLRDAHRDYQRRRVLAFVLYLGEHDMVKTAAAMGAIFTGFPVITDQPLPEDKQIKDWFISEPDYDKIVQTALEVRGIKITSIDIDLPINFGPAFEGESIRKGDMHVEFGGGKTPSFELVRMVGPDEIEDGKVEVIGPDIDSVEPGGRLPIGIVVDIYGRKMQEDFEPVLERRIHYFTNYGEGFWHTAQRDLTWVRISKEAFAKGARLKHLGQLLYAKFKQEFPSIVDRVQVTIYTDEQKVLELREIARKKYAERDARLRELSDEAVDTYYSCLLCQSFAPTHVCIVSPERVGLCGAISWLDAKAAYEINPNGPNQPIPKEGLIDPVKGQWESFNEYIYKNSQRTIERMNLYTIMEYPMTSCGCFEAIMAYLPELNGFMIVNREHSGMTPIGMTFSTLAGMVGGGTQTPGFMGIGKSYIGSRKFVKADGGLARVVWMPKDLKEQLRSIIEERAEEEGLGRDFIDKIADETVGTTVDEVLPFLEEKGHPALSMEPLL

[2] = biological target: T1, acetyl-CoA synthase (ACS); test: ITC of methyl transfer to cluster A (two-substrate-two-product fit); assay type: binding

CC(C)(COP(=O)(O)OP(=O)(O)OC[C@H]1O[C@@H](n2cnc3c(N)ncnc32)[C@H](O)[C@@H]1OP(=O)(O)O)[C@@H](O)C(=O)NCCC(=O)NCCS [CoA]
pKd [1]: > 4.06

methyl cobinamide
ITC of methyl transfer to cluster A (two-substrate-two-product fit) [2]: 341
